Measurements as given in ChEMBL document CHEMBL2417512, “Spirolactam-based acetyl-CoA carboxylase inhibitors: toward improved metabolic stability of a chromanone lead structure” (J Med Chem, 2013).
In brackets after ≈: the same amount, converted by molar mass.

How the values were obtained:
[1] = Hepatic clearance in human liver microsomes; type: ADME, Microsome; details: read-out: CLH
[2] = Lipophilicity, log D of the compound; type: physicochemical; details: octanol/water
[3] = Solubility of the compound at pH 6.5; type: physicochemical; details: buffer
[4] = Cmax in rat at 5 mg/kg, po; type: ADME, organism-based; parameters: dose 5 mg/kg, route oral; details: in vivo
[5] = Systemic clearance in rat at 1 mg/kg, iv; type: ADME, organism-based; parameters: dose 1 mg/kg, route intravenous; details: in vivo
[6] = Thermodynamic solubility of the compound at pH 1.2; type: physicochemical; details: buffer, read-out: Therm_solubility
[7] = Volume of distribution in rat at 1 mg/kg, iv; type: ADME, organism-based; parameters: dose 1 mg/kg, route intravenous; details: in vivo
[8] = Oral bioavailability in rat at 5 mg/kg; type: ADME, organism-based; details: in vivo
[9] = AUC (last) in rat at 5 mg/kg, po; type: ADME, organism-based; parameters: time 0 - last, dose 5 mg/kg, route oral; details: plasma

SMILES	microsomal CLint [1] [µL/min/mg]	logD [2]	further results
CN(C)c1ccc2ccc(C(=O)N3CCC4(CC3)Cc3cn(C(C)(C)C)nc3C(=O)N4)cc2n1	19	1.9	–
CC(C)(C)n1cc2c(n1)C(=O)NC1(CCN(C(=O)c3ccc4[nH]nc(C(F)(F)F)c4c3)CC1)C2	< 8	2.5	–
CC(C)(C)n1cc2c(n1)C(=O)NC1(CCN(C(=O)c3ccc4[nH]nc(Cl)c4c3)CC1)C2	< 8	1.8	–
CC(C)(C)n1cc2c(n1)C(=O)NC1(CCN(C(=O)c3ccc4[nH]cc(Cl)c4c3)CC1)C2	17	2.6	–
CC(C)(C)n1cc2c(n1)C(=O)NC1(CCN(C(=O)c3ccc4c(Cl)c[nH]c4c3)CC1)C2	31	3.5	–
CC(C)(C)n1cc2c(n1)C(=O)NC1(CCN(C(=O)c3cnc4c(Cl)c[nH]c4c3)CC1)C2	< 8	1.4	–
COc1cc2cc(C(=O)N3CCC4(CC3)Cc3cn(C(C)(C)C)nc3C(=O)N4)ccc2cn1	< 8	1.6	–
COc1ccc2ccc(C(=O)N3CCC4(CC3)Cc3cn(C(C)(C)C)nc3C(=O)N4)cc2n1	< 8	2.2	solubility [3]: 0.05 µg/mL (≈ 0.112 µM); Cmax [4]: 403 ng/mL; clearance [5]: 29 mL/min/kg; solubility thermodynamic [6]: 0.49 µg/mL (≈ 1.09 µM); Vd [7]: 1.7 L/kg; bioavailability [8]: 71%; AUC(0-t) [9]: 2070 ng·h/mL
COc1nccc2ccc(C(=O)N3CCC4(CC3)Cc3cn(C(C)(C)C)nc3C(=O)N4)cc12	12	2	solubility [3]: 0.13 µg/mL (≈ 0.29 µM); Cmax [4]: 186 ng/mL; clearance [5]: 41 mL/min/kg; bioavailability [8]: 28%; AUC(0-t) [9]: 713 ng·h/mL
CNc1ccc2ccc(C(=O)N3CCC4(CC3)Cc3cn(C(C)(C)C)nc3C(=O)N4)cc2n1	9	1.5	solubility thermodynamic [6]: 4.8 µg/mL (≈ 10.7 µM)
CNc1nccc2ccc(C(=O)N3CCC4(CC3)Cc3cn(C(C)(C)C)nc3C(=O)N4)cc12	25	1.5	–
CCCNc1ccc2ccc(C(=O)N3CCC4(CC3)Cc3cn(C(C)(C)C)nc3C(=O)N4)cc2n1	29	2.1	–
CC(C)(C)n1cc2c(n1)C(=O)CC1(CCN(C(=O)c3ccc4[nH]ncc4c3)CC1)O2	< 9	1.4	–
Cc1ccc2c(c1)C(=O)CC1(CCN(C(=O)c3ccc4[nH]ncc4c3)CC1)O2	19	2.5	–
CC(C)(C)n1cc2c(n1)C(=O)NC1(CCN(C(=O)c3ccc4[nH]ncc4c3)CC1)C2	< 8	1	–
Cc1n[nH]c2c(C)cc(C(=O)N3CCC4(CC3)Cc3cn(C(C)(C)C)nc3C(=O)N4)cc12	< 8	1.5	–
Cc1n[nH]c2c(C)cc(C(=O)N3CCC4(CC3)Cc3cn(C(C)C)nc3C(=O)N4)cc12	< 8	1.1	–
CCC(C)(C)n1cc2c(n1)C(=O)NC1(CCN(C(=O)c3cc(C)c4[nH]nc(C)c4c3)CC1)C2	35	1.7	–
Cc1n[nH]c2c(C)cc(C(=O)N3CCC4(CC3)Cc3cnn(C(C)(C)C)c3C(=O)N4)cc12	17	2.6	–
Cc1n[nH]c2c(C)cc(C(=O)N3CCC4(CC3)Cc3cnn(C(C)C)c3C(=O)N4)cc12	< 8	1.7	–
Cc1n[nH]c2c(C)cc(C(=O)N3CCC4(CC3)Cc3cn(C(C)(C)C)nc3C(=O)N4C)cc12	14	1.4	–
